We go through 23 molecules from EPA's ToxValDB 9.5.

A word on the LD50: it is the dose expected to kill half of the subjects tested. Read a low LD50 as a more toxic substance. A word on the LOAEL: it is the lowest tested level that showed an adverse finding. As a reminder, the NOAEL is the highest tested level that showed no adverse finding.

In data set [1] the test system is Rattus norvegicus. As to conditions: oral.
In data set [2] the test system is Rattus norvegicus. As to conditions: for NOAEL (% diet): short-term, duration: 29 days.
Setting [3] is: reproduction developmental, duration: 10 days, oral, gavage, F, Sprague-Dawley.
The mark [4] stands for this setting: subchronic, duration: 13 weeks, oral, diet.
Setting [5] is: subchronic, gavage, M, Sprague-Dawley, Clinical Observation: Salivation Locomotor activity decrease, BradypneaIncomplete eyelid opening + Body Weight Changes: decrease + Blood ….
The mark [6] stands for this setting: acute, oral, gavage, Sprague-Dawley.
Where [7] appears, read: subchronic, gavage, M, Sprague-Dawley, Body Weight Changes: Body weight gain decrease + Food Consumption: Food consumption decrease + Blood Chemistry: ALP decrease, TG decrease, ….
Setting [8] is: reproduction developmental, duration: 32 days, oral, gavage, Sprague-Dawley, generation: F0.
The mark [9] stands for this setting: reproduction developmental, inhalation, Wistar.

A value given as a limit tells only on which side of the number the result lay.

As to `O=C(O)C1CCC(c2ccc(Cl)cc2)CC1` (stereo unspecified), the NOEL in the data set on Rattus norvegicus [1] (short-term, duration: 28 days, gavage, M/F, Deaths + Clinical Observation: Abnormal gait Lethargy Piloerection Ptosis + Blood Chemistry: GPT increase, ALP increase, TP increase, ALB …) is below 12 mg/kg-day. Turning to `O=C1Oc2cc3c(cc2=C1c1ccccc1)OC(=O)C=3c1ccc(OCC2CCCO2)cc1` (stereo unspecified), the NOEL with Rattus norvegicus [1] (short-term, duration: 28 days, gavage) was 1000 mg/kg-day. Regarding `CC(C)(C)c1cc(N=C(NO)c2ccc([N+](=O)[O-])cc2)n[nH]1`, the NOEL in the data set on Rattus norvegicus [1] (short-term, duration: 28 days, gavage, M/F, Body Weight Changes: Weight gain decrease + Hematology: RET increase, RBC decrease, HGB decrease, WBC increase, MCV increase, MCH increase, …) is below 4 mg/kg-day.

Take `CC(C)CCCCCOC(=O)CCc1cc(C(C)(C)C)c(O)c(C(C)(C)C)c1`: the NOEL in the data set with Rattus norvegicus [1] (short-term, duration: 28 days, gavage, M/F, Hematology: APTT increase + Organ Weight: Liver increase + Histopathology: Liver - Hypertrophy, centrilobular, hepatocyte Thyroid - …) was below 5 mg/kg-day. Consider `CC(=O)CC(=O)Nc1ccc(-c2ccc(NC(=O)CC(C)=O)c(C)c2)cc1C`, for which the NOEL with Rattus norvegicus [1] (short-term, duration: 28 days, gavage, M/F, Crl:CD(SD), Body Weight Changes: decrease + Food Consumption: decrease + Water Consumption: decrease + Urinalysis: Volume decrease + Blood Chemistry: …) came out at 8 mg/kg-day.

Take `Cc1cc(S(=O)(=O)[O-])c(N=Nc2c([O-])c(C(=O)O)cc3ccccc23)cc1Cl.[Ba+2]`: the LD50 in the data set with Rattus norvegicus [2] (acute, oral, gavage) was at least 5000 mg/kg.

As to `CC1COCc2cc3c(cc21)C(C)(C)C(C)C3(C)C` (stereo unspecified), the LOAEL stood at 150 mg/kg-day with Rattus norvegicus [2] (setting [3]) and 300 mg/kg-day in the data set with Rattus norvegicus [2] (setting [4]). Besides, the no-observed-adverse-effect level (NOAEL) with Rattus norvegicus [2] (setting [3]) is 50 mg/kg-day; in the data set on Rattus norvegicus [2] (reproduction developmental, duration: 10 days, oral, gavage, Sprague-Dawley, generation: F1), 150 mg/kg-day; in the data set on Rattus norvegicus [2] (reproduction developmental, oral, gavage) it was 20 mg/kg-day; in the data set on Rattus norvegicus [2] (setting [4]), 150 mg/kg-day. `CCCCCCCCCCCCc1ccc(S(=O)(=O)[O-])cc1.COc1ccc(C[N+](C)(C)c2ccccc2)cc1`: the NOEL in the data set on Rattus norvegicus [1] (short-term, duration: 28 days, gavage, M/F, Clinical Observation: Salivation + Urinalysis: Occult blood + Blood Chemistry: GPT increase, T-CHO increase, K increase, GOT increase, TG …) stood at 25 mg/kg-day.

On to `CCCCCCC[CH2][Sn]([S]CC(=O)OCCCCCC(C)C)([S]CC(=O)OCCCCCC(C)C)[S]CC(=O)OCCCCCC(C)C`, for which the NOAEL is 28.8 mg/kg-day in the data set with Rattus norvegicus [1] (subchronic, duration: 13 weeks, diet, M, CIVO, Wistar-derived, Relative Organ Weight: Kidney increase, Liver decrease + Histopathology: Kidney-Increased granularity, tubular epithelial cells) and below 45.6 mg/kg-day in the data set with Rattus norvegicus [1] (subchronic, duration: 13 weeks, drinking water, M/F, CIVO, Wistar-derived, Urinalysis: Epithelial cell increase, Crystals increase + Hematology: HGB decrease + Blood Chemistry: BUN increase + Relative Organ Weight: …). `CCCCn1c(O)c(C#N)c(C)c(N=Nc2ccc([N+](=O)[O-])cc2Cl)c1=O`: the NOEL with Rattus norvegicus [1] (short-term, duration: 28 days, gavage, M/F, Blood Chemistry: GOT increase, T-bil increase + Organ Weight: Liver increase) is 250 mg/kg-day.

Take `CCn1cc(C(=O)[O-])c(=O)c2cc3occc3nc21.[Na+]`: the NOEL in the data set with Rattus norvegicus [1] (chronic, duration: 26 weeks, gavage, M/F, Clinical Observation: Salivation + Body Weight Changes: Gain decrease + Hematology: WBC decrease + Blood Chemistry: A/G increase + Organ …) came out at 10 mg/kg-day. As for `COc1cc(N=Nc2ccc3cc(S(=O)(=O)[O-])c(N=Nc4cc(OC)c(N=Nc5ccc(N)cc5S(=O)(=O)[O-])cc4OC)c(O)c3c2)c(OC)cc1N.[Na+].[Na+]`, the NOEL in the data set on Rattus norvegicus [1] (short-term, duration: 28 days, gavage, M/F, Body Weight Changes: Body weight gain decrease + Food Consumption: decrease + Hematology: GOT increase, GPT increase, TG decrease + Organ …) came to 2 mg/kg-day. Take `COc1cc(S(=O)(=O)CCOS(=O)(=O)O)c(OC)cc1N`: the NOEL with Rattus norvegicus [1] (short-term, duration: 28 days, gavage, F, Blood Chemistry: Na increase + Relative Organ Weight: Liver increase, Kidney increase) worked out at 30 mg/kg-day. Consider `COCc1ccc(COC)cc1` [1,4-Bis(methoxymethyl)benzene], for which, in the data set with Rattus norvegicus [1] (setting [5]), the NOAEL stood at 50 mg/kg-day and the NOEL was determined as 50 mg/kg-day. As to `O=C(O)C1CCC(C(=O)O)CC1` (stereo unspecified) [1,4-Cyclohexanedicarboxylic acid], the LD50 with Rattus norvegicus [2] (setting [6]) amounted to 2080 mg/kg. Moreover, the “NOAEL (% diet)” value was 1 with Rattus norvegicus [2] (oral, diet, F, Sprague-Dawley) and 1 with Rattus norvegicus [2] (oral, diet, M, Sprague-Dawley). In addition, the NOAEL in the data set on Rattus norvegicus [2] (subchronic, duration: 90 days, oral, gavage, F, Wistar) came to 300 mg/kg-day; in the data set on Rattus norvegicus [2] (subchronic, duration: 90 days, oral, gavage, M, Wistar) it was 300 mg/kg-day. For the molecule `C1CN2CCN1CC2` [1,4-Diazabicyclo[2.2.2]octane], in the data set on Rattus norvegicus [1] (short-term, duration: 29 days, gavage, M, Sprague-Dawley, Body Weight Changes: Weight gain decrease + Food Consumption: decrease + Histopathology: Kidney: Inflammation, chronic Kidney: Proliferation), the NOAEL is 100 mg/kg-day. In the case of `C1=CCCC=CCCC=CCC1` [1,5,9-Cyclododecatriene], in the data set on Rattus norvegicus [1] (subchronic, duration: 42 days, gavage, M, CD(SD), Clinical Observation: Salivation + Body Weight Changes: Weight gain decrease + Hematology: PT increase, APTT increase, Fibrinogen increase…), the NOEL came to 12 mg/kg-day. Also, the NOAEL in the data set on Rattus norvegicus [1] (subchronic, duration: 55 days, gavage, M, Sprague-Dawley, Body Weight Changes: Weight gain decrease + Food Consumption: increase + Urinalysis: Vol increase + Blood Chemistry: TG decrease + Absolute …) amounted to 30 mg/kg-day. `O=S(=O)([O-])c1cccc2c(S(=O)(=O)[O-])cccc12.[Na+].[Na+]` [1,5-Naphthalenedisulfonic acid, disodium salt]: the NOEL with Rattus norvegicus [1] (subchronic, gavage, M, Sprague-Dawley, Clinical Observation: Soft stool Diarrhea + Necropsy: Stomach/Forestomach-Elevation of limiting ridge Cecum-Enlargement + Histopathology: …) is 40 mg/kg-day. On to `C(CCCOCC1CO1)CCOCC1CO1` (stereo unspecified) [1,6-Hexanediol diglycidyl ether], for which, in the data set with Rattus norvegicus [1] (setting [7]), the no-observed-adverse-effect level (NOAEL) was 30 mg/kg-day and the NOEL is 30 mg/kg-day.

`ClCCc1ccccc1` [1-Chloro-2-phenylethane]: in the data set with Rattus norvegicus [1] (short-term, duration: 28 days, gavage, M/F, Sprague-Dawley, Food Consumption: decrease + Urinalysis: Volume increase, Prot decrease + Hematology: RBC increase, MCV decrease, MCH decrease + Absolute …), the NOEL was 60 mg/kg-day. Regarding `CCCCCCCCCCCCCl` [1-Chlorododecane], the LD50 in the data set on Rattus norvegicus [2] (setting [6]) is above 2000 mg/kg. Besides, in the data set on Rattus norvegicus [2] (setting [8]), the LOAEL was found to be 300 mg/kg-day and the NOAEL was found to be 100 mg/kg-day. This molecule registered an LOAEL with Rattus norvegicus [2] (reproduction developmental, duration: 32 days, oral, gavage, Sprague-Dawley, generation: F1) of 1000 mg/kg-day.

Molecule `CC=CC` [2-Butene] yielded an LC50 in the data set with Rattus norvegicus [2] (acute, inhalation, Wistar) above 22900 mg/m3. In the data set on Rattus norvegicus [2] (setting [9]), the LOAEL worked out at 11500 mg/m3 and the NOAEL amounted to 5740 mg/m3. The molecule `CCCCCCCCCCCCCCCCCC(=O)OCCO` [2-Hydroxyethyl octadecanoate] registered a 50% lethal dose (LD50) in the data set on Rattus norvegicus [2] (acute, oral, gavage, Wistar) above 5000 mg/kg.
